Results as given in US20130172414A1, “PHARMACEUTICAL COMPOSITION COMPRISING LEVOCARNITINE AND DOBESILATE” (TIANJIN NANKAI SHARE PHARMACEUTICAL SCIENCE & TECHNOLOGY …, priority 2010, published 2013).

Legend:
[1] = tested on: adenine-induced mice renal failure model; assay: Pharmacodynamic test, chronic renal failure model (Example 5); assay type: in vivo, SPF grade Kunming mice; details: for Water content of renal tissue / blood urea nitrogen (BUN) / body weight after 4 weeks / renal index / serum creatinine (Scr): 350 mg/kg once per day for 4 weeks, n=10; for values of Scr and BUN as compared with the renal failure group: 350 mg/kg, 4 weeks
Description: Based on intergroup consistency principle, SPF grade Kunming mice (with a body weight of about 20 to 22 g, half male and half female) were randomly divided into 5 groups (n=10) with one of them as the control group. Except for control group, 300 mg/kg (20 ml/kg·d) of adenine was administrated given to mice once per day for successive 3 days by gavage, thereby to obtain adenine-induced mice renal failure model as described in the references (see for example Pingdong Zheng et. al, “The establishment of chronic renal failure animal model with adenine, Chinese Journal of Nephrology, 1989, 5(4): 342-344; Deyu Guo et. al., “The establishment of mice model with chronic renal insufficiency”, CHINESE JOURNAL OF LABORATORY ANIMAL SCIENCE, 2001, 11(3): 142-145; and Shuling Sun et. al, “The traditional Chinese medicinal intervention and pathological observations in mice chronic renal failure model”, ZHEJIANG JOURNAL OF INTEGRATED TRADITIONAL CHINESE AND WESTERN MEDICINE, 2002, 12(4): 221-222).
Thereafter, except for the control group, based on intergroup consistency principle, the remaining 4 groups were redivided randomly into 4 groups, renal failure group, levocarnitine (350 mg/kg) group, calcium dobesilate (350 mg/kg) group, as well as levocarnitine and calcium dobesilate group (350 mg/kg) (wherein the ratio of levocamitine and calcium dobesilate is 1:1). Except for the renal failure group, mice of each group were administrated at the given dosage once per day for successive 4 weeks. Then the data for the mice of each group such as body weight, blood urea nitrogen (BUN), serum creatinine (Scr), renal index and water content of renal tissue were determined.

[2] = Mice acute toxicity test (Example 7); details: mouse, in vivo
Description: (§1) Toxicity Test According to the methods described in literatures (“Guiding principles for acute toxicity test of a chemical drug”, No. [H]GPT1-1, CENTER FOR DRUG EVALUATION, SFDA; Bojun Yuan et. al., “The Preclinical Safety Evaluation and Practice of New Drug”, Military Medical Science Press, 1997: 23-36[…] Bojun Yuan et. al., “Methods and Techniques for Drug ToxicologicalTest”, Chemical Industry Press, 2008: 200-210), the preparation of levocamitine and calcium dobesilate obtained from example 2 was tested for mice acute toxicity.

[3] = tested on: ischemic/reperfused rat; details: cited from earlier work
[4] = tested on: mice; assay: Mice acute toxicity test (Example 7); details: mice acute toxicity
Description: as §1

[5] = tested on: rats in chronic renal failure model; details: cited from earlier work

SMILES: C[N+](C)(C)C[C@H](O)CC(=O)[O-] [Levocarnitine, (R)-3-carboxy-2-hydroxy-N,N,N-trimethyl-1-propanaminium hydroxide]
- Water content of renal tissue [1]: 76.0 ± 2.0%
- blood urea nitrogen (BUN) [1]: 9.7 ± 5.8 mmol/L
- body weight after 4 weeks [1]: 32.3 ± 5.3 g
- renal index [1]: 7.0 ± 1.3
- serum creatinine (Scr) [1]: 21.6 ± 11.8 µmol/L
- values of Scr and BUN as compared with the renal failure group [1]: decreased
- LD50 [2]: 19200 mg/kg
- content of malonaldehyde (MDA) in renal tissue [3]: reduce
- content of reduced glutathione (GSH) [3]: increase
- serum creatinine (Scr) and blood urea nitrogen (BUN) [3]: can reduce

SMILES: O=S(=O)([O-])c1cc(O)ccc1O.O=S(=O)([O-])c1cc(O)ccc1O.[Ca+2] [Calcium dobesilate, calcium dobesilate]
- Water content of renal tissue [1]: 75.9 ± 1.8%
- blood urea nitrogen (BUN) [1]: 11.8 ± 7.0 mmol/L
- body weight after 4 weeks [1]: 31.6 ± 4.6 g
- renal index [1]: 7.2 ± 0.7
- serum creatinine (Scr) [1]: 10.0 ± 9.2 µmol/L
- values of Scr and BUN as compared with the renal failure group [1]: decreased
- LD50 [4]: 10600 mg/kg
- content of thromboxane Az in the homogenate of renal cortex [5]: reduce notably
- level of Scr and BUN [5]: decreasing
